Usually melting point stands for the temperature of the solid-liquid transition.

The structures appear in SMILES notation. Where only a bound is given, the exact number is not on record here.

The values that follow come from a melting point compilation (Tetko et al.; mined from patent text by program, amines drawn as free bases though some values may be those of a salt).

In the case of `CCOC(=O)C(=CC=C(SC)C(=O)c1ccccc1)N(C)C`, the melting point was determined as 78 °C.
Regarding `CN1CCCCC1CCc1ccccc1NC(=O)c1ccccc1C(=O)O` (centres undefined), the melting point lay in the range of 171 to 172 °C.
The value for `CN(c1ccc(Br)cc1)S(=O)(=O)c1cccc(C(=O)Nc2ccc(Cl)cc2F)c1` was 117 to 118 °C; that for `COC(=O)c1cc2cc(OC)c(OCCCl)cc2[nH]1` was 164 to 166 °C; that for `COc1ccc(-c2c(N)cnc3ccc(Cl)cc23)cc1OC` was 187 to 190 °C.
In turn, `O=CN1CCN(c2ncc3c(=O)c(C(=O)ON4C(=O)CCC4=O)c[nH]c3n2)CC1` yielded a melting point above 300 °C.
For the compound `CCC(=O)OC(CC)c1nc2c(C(F)(F)F)cccc2c(O)c1C(=O)Nc1nccs1` (centres undefined), the melting point stood at 187 °C.
The compound `NNc1cccc(F)c1[N+](=O)[O-]` came in with a melting point of 93 to 95 °C.
Regarding `CCOc1nc2c(nc1C(=O)N1CCN(C)CC1)c(C)nn2CC`, the melting point was in the range of 111 to 112 °C.
The compound `Cc1c(Cc2cnc[nH]2)cccc1NS(C)(=O)=O` had a melting point of 224 °C.
The figure for `CCNc1nc(-c2ccc(F)cc2)c(-c2ccc(S(C)(=O)=O)cc2)s1` is 218 to 219 °C; for `CC(C)Cc1ccccc1Sc1c(O)cc(-c2ccccc2)oc1=O` it is 195 °C; for `CN(Cc1cccc2c1CN(C1CCC(=O)NC1=O)C2=O)C(=O)Nc1cccc(Cl)c1` (centres undefined) it is 193 to 195 °C.
The figure for `COc1ccccc1-n1nc(-c2c(-c3ccccc3)nn3ccccc23)ccc1=O` is 163 °C; for `Cc1nnc(CO)n1-c1ccc(Cl)cc1C(=O)c1ccccc1Cl` it is 194 to 195 °C; for `Cc1oc(-c2ccccc2)nc1CCOc1ccc(CC(C(=O)O)C(=O)N(C)C)cc1` (centres undefined) it is 48.5 to 49.7 °C.
Compound `CCCCc1nc(N)c(C(=O)OCC)[nH]1` registered a melting point of 103 to 106 °C.
`COc1cc(-c2nc(N(C)CCN)c3c(C)c(C#N)sc3n2)cc(OC)c1OC` showed a melting point above 290 °C.
Take `CCc1ccc(C(=O)C=CN(C)C)cc1`: the melting point fell in the range of 80 to 81 °C.
The compound `CC(C)CCNC(=S)c1ccc2c(c1)N(C(C)CN1CCC[C@@H]1CO)c1ccccc1S2` (some centres undefined) registered a melting point of 140 °C.
The value for `CCOCN1C(C)=C(C(C)=O)C(c2cccc([N+](=O)[O-])c2)C(C(=O)OCC)=C1C` (centres undefined) was 110 to 111 °C; that for `S=C=Nc1ccc2oc(-c3ccco3)nc2c1` was 135 to 137 °C; that for `CCOC(=O)COc1ccc2c(c1)C[C@H](NC(=O)OC(C)(C)C)CC2` was 113 to 115 °C.
`O=C(O)CCc1cc(-c2ccc(Cl)cc2)n(-c2nc3c(Cl)cccc3s2)n1` yielded a melting point of 232 to 234 °C.
With `COCCNC(=O)c1cc2c(ccc3cnn(C[C@H](C)N)c32)o1`, the melting point was in the range of 75 to 76 °C.
Take `COc1ccc(CCN2CCC(C(=O)c3csc4ccccc34)CC2)cc1`: the melting point is 114 to 116 °C.
Take `Cc1sc(N)nc1-c1ccc2c(c1)CC(=O)N2`: the melting point is above 250 °C.
As to `O=C(N1CCC(O)(c2ccccc2)CC1)C(F)(F)F`, the melting point was in the range of 123 to 125 °C.
The figure for `Cn1cc(Nc2ccc([N+](=O)[O-])cc2[N+](=O)[O-])cn1` is 149 °C; for `O=S(=O)(c1cccs1)N(CC(F)(F)F)c1cccc2cc(-c3nccs3)[nH]c12` it is 194 to 195 °C.
As for `Cc1c(CC(C)C)sc2nc(C(Cl)(Cl)Cl)[nH]c(=O)c12`, the melting point was in the range of 192 to 194 °C.
`CC(C)(C)OC(=O)NCCn1cnc2c(N)nc3ccccc3c21` came in with a melting point of 215 °C.
In the case of `CCCOc1nsc(NC(=O)C(C)C)c1C(N)=O`, the melting point was in the range of 153 to 154 °C.
In turn, `CCCc1c(OCC(O)COc2cccc(NC(=O)C(=O)OCC)c2)ccc(C(C)=O)c1O` (centres undefined) registered a melting point of 98 to 101 °C.
`CC(C)(C)OC(=O)N1CCC(C#N)(c2ccc(Cl)c(Cl)c2)CC1`: the melting point lay in the range of 142 to 145 °C.
Compound `OC1CSC(Oc2cc(-c3ccncc3)ccc2Cl)C(O)C1O` (centres undefined) had a melting point of 189 °C.
In the case of `Cc1cc(C)cc(Sc2c(CO)nc(C)n2C)c1`, the melting point is 198 to 199 °C.
`CCOC(=O)Cc1cc(C)c(C(=O)c2ccc(C)cc2)n1C` returned a melting point of 90 to 93 °C.
`Cn1cc(C(=O)NCc2ccc(Cl)cc2)c(=O)c2cc(CN3CCOCC3)cc(C#CCN3CCS(=O)(=O)CC3)c21` showed a melting point of 220 to 222 °C.
In turn, `O=C(O)C1=Cc2cc(Cl)c(Oc3cccc(C(=O)O)c3)cc2OC1C(F)(F)F` (centres undefined) returned a melting point of 288 to 289 °C.
`COc1ccc(CNc2nnc(NCCCO)c3ccc(C#N)cc23)cc1Cl`: the melting point fell in the range of 132 to 135 °C.
In the case of `Cc1c(Nc2c(C#N)cnc3sc(C4=CCN(S(C)(=O)=O)CC4)cc23)ccc2[nH]ccc12`, the melting point was found to be 228 °C.
The figure for `COC(C)=C(C(=O)OC(c1ccccc1)c1ccccc1)N1C(=O)C(NC(=O)C(NC(=O)OC(C)(C)C)c2ccccc2)C1SS(=O)(=O)c1ccc(C)cc1` (centres undefined) is 204 to 206 °C; for `CCOC(=O)C1=CC2(CCC1S(=O)(=O)Nc1ccc(F)cc1Cl)OCCS2` (centres undefined) it is 133 to 134 °C; for `CC(C)SC(C)(C)C(=O)O` it is 51.5 to 52.5 °C.
The value for `Cc1cc(-n2nc(C(F)F)cc2-c2ccc(S(C)(=O)=O)cc2)ccc1F` was 154 to 155 °C.
The compound `COC(=O)c1nsc2nccn12` gave a melting point of 164 to 165 °C.
The figure for `CC(C)OC(=O)C(=O)Nc1cc(Cl)ccc1O` is above 300 °C; for `CN1CCN(c2ccc(-c3nc(C(=O)Nc4nccs4)c(-c4ccc(Cl)cc4)[nH]3)cc2)CC1` it is above 250 °C.
Consider `CCCCCn1c2ccccc2c2cc(C(=O)OCC)ncc21`, for which the melting point was 92 to 93 °C.
In the case of `CCOC(=O)C1C(=C=S)NCC1CCc1ccc(C(=O)O)cc1` (centres undefined), the melting point was in the range of 145 to 148 °C.
The compound `COc1ccc(C(=O)c2ccc3cc(OC)ccc3c2-c2ccccc2)cc1` had a melting point of 122 to 124 °C.
The value for `Cc1ccc(C(=O)Cn2c(=O)sc3ccccc32)cc1` was 168 to 170 °C; that for `CC(=O)c1cccc2c(=O)c(C)c(-c3ccccc3)oc12` was 159 to 161 °C.
Compound `CON(Cc1cccc(-c2ccc(Cl)cc2)c1)C(=O)c1cn(C)nc1C(F)F` registered a melting point of 78 to 80 °C.
`CCCCc1cccc(=O)n1Cc1ccc(-c2ccccc2-c2nnn[nH]2)cc1`: the melting point came to 105 °C.
Turning to `N#Cc1ccc(-c2cc(-c3ccc(C#N)cc3Cl)on2)cc1`, the melting point is 260 to 262 °C.
Turning to `N#Cc1[nH]c(-c2c(Cl)cc(C(F)(F)F)cc2Cl)nc1C(N)=O`, the melting point lay in the range of 254 to 255 °C.
As to `CCOC(=O)c1ccc(-c2nc(COc3ccc(CO)cc3OC)c(C)o2)o1`, the melting point lay in the range of 105 to 106 °C.
Consider `CN(C)S(=O)(=O)N(C)c1ccc(C(O)(C(F)(F)F)C(F)(F)F)cc1`, for which the melting point lay within 63 to 65 °C.
`CC(CCC(N)=S)N1C(=O)c2ccccc2C1=O` (centres undefined): the melting point fell in the range of 143 to 146 °C.
The figure for `O=C(C=Cc1ccc[nH]1)c1ccccc1Br` is 76 to 78 °C; for `CC(C)n1nc(CC(=O)c2ccc(F)cc2)ccc1=O` it is 67 to 68 °C.
Consider `O=C(CS(=O)Cc1cccs1)C12CC3CC(CC(C3)C1)C2` (centres undefined), for which the melting point is 95 to 98 °C.
